Key:
Rattus norvegicus [1] = organism: Rattus norvegicus; experiment: DrugMatrix - Regimen: Daily Repeat; assay type: toxicity, organism-based, Sprague-Dawley; parameters: regimen Daily Repeat, gender Male, age 6-8 weeks; conditions: in vivo, po, 1200 mg/kg, […], route oral GAVAGE, dose level High, time 14 day
Rattus norvegicus [2] = organism: Rattus norvegicus; assay type: toxicity, organism-based, Sprague-Dawley; conditions: in vivo, po, 24 h, route oral GAVAGE, time 1 day, […]; for MEAN CORPUSCULAR HEMOGLOBIN CONCENTRATION / MEAN CORPUSCULAR VOLUME / ABSOLUTE BASOPHIL / ABSOLUTE EOSINOPHIL / ABSOLUTE LYMPHOCYTE / ABSOLUTE MONOCYTE / BASOPHIL / EOSINOPHIL / ERYTHROCYTE COUNT / HEMATOCRIT / HEMOGLOBIN / LEUKOCYTE COUNT / LYMPHOCYTE / MEAN CORPUSCULAR HEMOGLOBIN / MONOCYTE / NEUTROPHIL / PLATELET COUNT: tissue Blood; for ALANINE AMINOTRANSFERASE / ALBUMIN / ALKALINE PHOSPHATASE / ASPARTATE AMINOTRANSFERASE / BLOOD UREA NITROGEN / CARBON DIOXIDE / CHLORIDE / CHOLESTEROL / CREATINE PHOSPHOKINASE / CREATININE / GLUCOSE / LACTATE DEHYDROGENASE / LIPASE / PHOSPHORUS / POTASSIUM / SODIUM / TOTAL BILIRUBIN / TOTAL PROTEIN / URIC ACID: tissue Plasma
Description: DrugMatrix - Regimen: Single

[3] = 0 mg/kg, vehicle control, dose level Control

`CC[C@H](C)C(=O)O[C@H]1C[C@H](O)C=C2C=C[C@H](C)[C@H](CC[C@@H](O)C[C@@H](O)CC(=O)O)[C@H]21` [PRAVASTATIN] was tested, and the MONOCYTE (Rattus norvegicus [1]; tissue Blood) was 6.57%, the NEUTROPHIL (Rattus norvegicus [1]; tissue Blood) was 58.53% and the “PLATELET COUNT” value (Rattus norvegicus [1]; tissue Blood) was 1135 x10E3/uL. The “ALANINE AMINOTRANSFERASE” value (Rattus norvegicus [1]; tissue Plasma) was 669.33 u/L, the ALBUMIN (Rattus norvegicus [1]; tissue Plasma) was 3.17 G/DL and the “ALKALINE PHOSPHATASE” value (Rattus norvegicus [1]; tissue Plasma) was 461 u/L. For the same compound, the “ASPARTATE AMINOTRANSFERASE” value (Rattus norvegicus [1]; tissue Plasma) was 5256.67 u/L, the “BLOOD UREA NITROGEN” value (Rattus norvegicus [1]; tissue Plasma) was 60.67 mg/dL and the “CARBON DIOXIDE” value (Rattus norvegicus [1]; tissue Plasma) was 33.33 mmol/L. For the same compound, the CHLORIDE (Rattus norvegicus [1]; tissue Plasma) was 95.67 MEQ/L, the CHOLESTEROL (Rattus norvegicus [1]; tissue Plasma) was 47 mg/dL and the “CREATINE PHOSPHOKINASE” value (Rattus norvegicus [1]; tissue Plasma) was 10626.67 u/L. The CREATININE (Rattus norvegicus [1]; tissue Plasma) was 0.97 mg/dL, the GLUCOSE (Rattus norvegicus [1]; tissue Plasma) was 113.67 mg/dL and the “LACTATE DEHYDROGENASE” value (Rattus norvegicus [1]; tissue Plasma) was 1229.67 u/L. It also gave an LIPASE (Rattus norvegicus [1]; tissue Plasma) of 228.5 u/L, a PHOSPHORUS (Rattus norvegicus [1]; tissue Plasma) of 11.03 mg/dL and a POTASSIUM (Rattus norvegicus [1]; tissue Plasma) of 6.93 MEQ/L. The SODIUM (Rattus norvegicus [1]; tissue Plasma) was 141 MEQ/L, the “TOTAL BILIRUBIN” value (Rattus norvegicus [1]; tissue Plasma) was 0.3 mg/dL and the “TOTAL PROTEIN” value (Rattus norvegicus [1]; tissue Plasma) was 5.53 G/DL. For the same compound, the “URIC ACID” value (Rattus norvegicus [1]; tissue Plasma) was 1.53 mg/dL, the “MEAN CORPUSCULAR HEMOGLOBIN CONCENTRATION” value (Rattus norvegicus [2]; 0 mg/kg, dose level Control) was 30.5 G/DL and the “MEAN CORPUSCULAR VOLUME” value (Rattus norvegicus [2]; 0 mg/kg, dose level Control) was 67.21 fL. For the same compound, the ABSOLUTE BASOPHIL (Rattus norvegicus [2]; [3]) was 50 cells/µL, the ABSOLUTE EOSINOPHIL (Rattus norvegicus [2]; [3]) was 32.5 cells/µL and the ABSOLUTE LYMPHOCYTE (Rattus norvegicus [2]; [3]) was 7980 cells/µL. It also gave an ABSOLUTE MONOCYTE (Rattus norvegicus [2]; [3]) of 170 cells/µL, a BASOPHIL (Rattus norvegicus [2]; [3]) of 0.58% and an EOSINOPHIL (Rattus norvegicus [2]; [3]) of 0.34%. For the same compound, the “ERYTHROCYTE COUNT” value (Rattus norvegicus [2]; [3]) was 6.56 x10E6/uL, the HEMATOCRIT (Rattus norvegicus [2]; [3]) was 44.14% and the HEMOGLOBIN (Rattus norvegicus [2]; [3]) was 13.45 G/DL. For the same compound, the “LEUKOCYTE COUNT” value (Rattus norvegicus [2]; [3]) was 9.51 x10E3/uL, the LYMPHOCYTE (Rattus norvegicus [2]; [3]) was 83.6% and the “MEAN CORPUSCULAR HEMOGLOBIN” value (Rattus norvegicus [2]; [3]) was 20.5 pg. For the same compound, the MONOCYTE (Rattus norvegicus [2]; [3]) was 1.86%, the NEUTROPHIL (Rattus norvegicus [2]; [3]) was 12.7% and the “PLATELET COUNT” value (Rattus norvegicus [2]; [3]) was 1240.38 x10E3/uL. For the same compound, the “ALANINE AMINOTRANSFERASE” value (Rattus norvegicus [2]; [3]) was 47.12 u/L, the ALBUMIN (Rattus norvegicus [2]; [3]) was 3.59 G/DL and the “ALKALINE PHOSPHATASE” value (Rattus norvegicus [2]; [3]) was 461.38 u/L. For the same compound, the “ASPARTATE AMINOTRANSFERASE” value (Rattus norvegicus [2]; [3]) was 62.25 u/L, the “BLOOD UREA NITROGEN” value (Rattus norvegicus [2]; [3]) was 12.63 mg/dL and the “CARBON DIOXIDE” value (Rattus norvegicus [2]; [3]) was 39.5 mmol/L. For the same compound, the CHLORIDE (Rattus norvegicus [2]; [3]) was 105.38 MEQ/L, the CHOLESTEROL (Rattus norvegicus [2]; [3]) was 74.25 mg/dL and the “CREATINE PHOSPHOKINASE” value (Rattus norvegicus [2]; [3]) was 282.88 u/L. For the same compound, the CREATININE (Rattus norvegicus [2]; [3]) was 0.61 mg/dL, the GLUCOSE (Rattus norvegicus [2]; [3]) was 176.25 mg/dL and the “LACTATE DEHYDROGENASE” value (Rattus norvegicus [2]; [3]) was 190.25 u/L. It also gave an LIPASE (Rattus norvegicus [2]; [3]) of 28 u/L, a PHOSPHORUS (Rattus norvegicus [2]; [3]) of 12.68 mg/dL and a POTASSIUM (Rattus norvegicus [2]; [3]) of 6.6 MEQ/L. The SODIUM (Rattus norvegicus [2]; [3]) was 151.13 MEQ/L, the “TOTAL BILIRUBIN” value (Rattus norvegicus [2]; [3]) was 0.34 mg/dL and the “TOTAL PROTEIN” value (Rattus norvegicus [2]; [3]) was 6.09 G/DL. For the same compound, the “URIC ACID” value (Rattus norvegicus [2]; [3]) was 1.06 mg/dL, the ABSOLUTE BASOPHIL (Rattus norvegicus [2]; 1200 mg/kg, dose level High) was 12.5 cells/µL and the ABSOLUTE EOSINOPHIL (Rattus norvegicus [2]; 1200 mg/kg, dose level High) was 41.3 cells/µL. For the same compound, the ABSOLUTE LYMPHOCYTE (Rattus norvegicus [2]; 1200 mg/kg, dose level High) was 7270 cells/µL, the ABSOLUTE MONOCYTE (Rattus norvegicus [2]; 1200 mg/kg, dose level High) was 270 cells/µL and the BASOPHIL (Rattus norvegicus [2]; 1200 mg/kg, dose level High) was 0.35%. For the same compound, the EOSINOPHIL (Rattus norvegicus [2]; 1200 mg/kg, dose level High) was 0.46%, the “ERYTHROCYTE COUNT” value (Rattus norvegicus [2]; 1200 mg/kg, dose level High) was 6.38 x10E6/uL and the HEMATOCRIT (Rattus norvegicus [2]; 1200 mg/kg, dose level High) was 42.34%. The HEMOGLOBIN (Rattus norvegicus [2]; 1200 mg/kg, dose level High) was 12.95 G/DL, the “LEUKOCYTE COUNT” value (Rattus norvegicus [2]; 1200 mg/kg, dose level High) was 9.2 x10E3/uL and the LYMPHOCYTE (Rattus norvegicus [2]; 1200 mg/kg, dose level High) was 78.89%. The “MEAN CORPUSCULAR HEMOGLOBIN” value (Rattus norvegicus [2]; 1200 mg/kg, dose level High) was 20.29 pg, the “MEAN CORPUSCULAR HEMOGLOBIN CONCENTRATION” value (Rattus norvegicus [2]; 1200 mg/kg, dose level High) was 30.55 G/DL and the “MEAN CORPUSCULAR VOLUME” value (Rattus norvegicus [2]; 1200 mg/kg, dose level High) was 66.41 fL. The MONOCYTE (Rattus norvegicus [2]; 1200 mg/kg, dose level High) was 2.9%, the NEUTROPHIL (Rattus norvegicus [2]; 1200 mg/kg, dose level High) was 16.21% and the “PLATELET COUNT” value (Rattus norvegicus [2]; 1200 mg/kg, dose level High) was 1234.38 x10E3/uL. For the same compound, the “ALANINE AMINOTRANSFERASE” value (Rattus norvegicus [2]; 1200 mg/kg, dose level High) was 73.25 u/L, the ALBUMIN (Rattus norvegicus [2]; 1200 mg/kg, dose level High) was 3.64 G/DL and the “ALKALINE PHOSPHATASE” value (Rattus norvegicus [2]; 1200 mg/kg, dose level High) was 563.12 u/L. For the same compound, the “ASPARTATE AMINOTRANSFERASE” value (Rattus norvegicus [2]; 1200 mg/kg, dose level High) was 74.62 u/L, the “BLOOD UREA NITROGEN” value (Rattus norvegicus [2]; 1200 mg/kg, dose level High) was 12.25 mg/dL and the “CARBON DIOXIDE” value (Rattus norvegicus [2]; 1200 mg/kg, dose level High) was 36.62 mmol/L. The CHLORIDE (Rattus norvegicus [2]; 1200 mg/kg, dose level High) was 108 MEQ/L, the CHOLESTEROL (Rattus norvegicus [2]; 1200 mg/kg, dose level High) was 74.87 mg/dL and the “CREATINE PHOSPHOKINASE” value (Rattus norvegicus [2]; 1200 mg/kg, dose level High) was 344.5 u/L. The CREATININE (Rattus norvegicus [2]; 1200 mg/kg, dose level High) was 0.67 mg/dL, the GLUCOSE (Rattus norvegicus [2]; 1200 mg/kg, dose level High) was 193.13 mg/dL and the “LACTATE DEHYDROGENASE” value (Rattus norvegicus [2]; 1200 mg/kg, dose level High) was 126.88 u/L. For the same compound, the LIPASE (Rattus norvegicus [2]; 1200 mg/kg, dose level High) was 34.88 u/L, the PHOSPHORUS (Rattus norvegicus [2]; 1200 mg/kg, dose level High) was 12.5 mg/dL and the POTASSIUM (Rattus norvegicus [2]; 1200 mg/kg, dose level High) was 6.55 MEQ/L. The SODIUM (Rattus norvegicus [2]; 1200 mg/kg, dose level High) was 153.75 MEQ/L, the “TOTAL BILIRUBIN” value (Rattus norvegicus [2]; 1200 mg/kg, dose level High) was 0.27 mg/dL and the “TOTAL PROTEIN” value (Rattus norvegicus [2]; 1200 mg/kg, dose level High) was 6.12 G/DL. The “URIC ACID” value (Rattus norvegicus [2]; 1200 mg/kg, dose level High) was 1.09 mg/dL.
